Target: mouse TRPM3α2 (mTRPM3) ion channel (Mus musculus (Mouse), UniProt J9SQF3)
Assay: TRPM3 ion channel driven Ca2+ uptake, Fluo-4 AM assay, mTRPM3alpha2 overexpressing flip-in HEK293 cells stimulated with pregnenolone sulfate
Type: cell-based
Conditions: PS (50 μM) stimulated, cpd 001-199
How it was run: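 Read-out is Ca2+ influx via Fluo-4 AM fluorescence at 485/535 nm, taken right after seeding ~2000 cells/well onto compound with 50 μM PS. Inhibition computed from RFU between vehicle-stimulated and positive-control-inhibitor wells; cells were mTRPM3α2-overexpressing flip-in HEK293.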

Chain of mouse TRPM3α2 (mTRPM3) ion channel (J9SQF3 other isoform, or with tags, fused parts or gaps): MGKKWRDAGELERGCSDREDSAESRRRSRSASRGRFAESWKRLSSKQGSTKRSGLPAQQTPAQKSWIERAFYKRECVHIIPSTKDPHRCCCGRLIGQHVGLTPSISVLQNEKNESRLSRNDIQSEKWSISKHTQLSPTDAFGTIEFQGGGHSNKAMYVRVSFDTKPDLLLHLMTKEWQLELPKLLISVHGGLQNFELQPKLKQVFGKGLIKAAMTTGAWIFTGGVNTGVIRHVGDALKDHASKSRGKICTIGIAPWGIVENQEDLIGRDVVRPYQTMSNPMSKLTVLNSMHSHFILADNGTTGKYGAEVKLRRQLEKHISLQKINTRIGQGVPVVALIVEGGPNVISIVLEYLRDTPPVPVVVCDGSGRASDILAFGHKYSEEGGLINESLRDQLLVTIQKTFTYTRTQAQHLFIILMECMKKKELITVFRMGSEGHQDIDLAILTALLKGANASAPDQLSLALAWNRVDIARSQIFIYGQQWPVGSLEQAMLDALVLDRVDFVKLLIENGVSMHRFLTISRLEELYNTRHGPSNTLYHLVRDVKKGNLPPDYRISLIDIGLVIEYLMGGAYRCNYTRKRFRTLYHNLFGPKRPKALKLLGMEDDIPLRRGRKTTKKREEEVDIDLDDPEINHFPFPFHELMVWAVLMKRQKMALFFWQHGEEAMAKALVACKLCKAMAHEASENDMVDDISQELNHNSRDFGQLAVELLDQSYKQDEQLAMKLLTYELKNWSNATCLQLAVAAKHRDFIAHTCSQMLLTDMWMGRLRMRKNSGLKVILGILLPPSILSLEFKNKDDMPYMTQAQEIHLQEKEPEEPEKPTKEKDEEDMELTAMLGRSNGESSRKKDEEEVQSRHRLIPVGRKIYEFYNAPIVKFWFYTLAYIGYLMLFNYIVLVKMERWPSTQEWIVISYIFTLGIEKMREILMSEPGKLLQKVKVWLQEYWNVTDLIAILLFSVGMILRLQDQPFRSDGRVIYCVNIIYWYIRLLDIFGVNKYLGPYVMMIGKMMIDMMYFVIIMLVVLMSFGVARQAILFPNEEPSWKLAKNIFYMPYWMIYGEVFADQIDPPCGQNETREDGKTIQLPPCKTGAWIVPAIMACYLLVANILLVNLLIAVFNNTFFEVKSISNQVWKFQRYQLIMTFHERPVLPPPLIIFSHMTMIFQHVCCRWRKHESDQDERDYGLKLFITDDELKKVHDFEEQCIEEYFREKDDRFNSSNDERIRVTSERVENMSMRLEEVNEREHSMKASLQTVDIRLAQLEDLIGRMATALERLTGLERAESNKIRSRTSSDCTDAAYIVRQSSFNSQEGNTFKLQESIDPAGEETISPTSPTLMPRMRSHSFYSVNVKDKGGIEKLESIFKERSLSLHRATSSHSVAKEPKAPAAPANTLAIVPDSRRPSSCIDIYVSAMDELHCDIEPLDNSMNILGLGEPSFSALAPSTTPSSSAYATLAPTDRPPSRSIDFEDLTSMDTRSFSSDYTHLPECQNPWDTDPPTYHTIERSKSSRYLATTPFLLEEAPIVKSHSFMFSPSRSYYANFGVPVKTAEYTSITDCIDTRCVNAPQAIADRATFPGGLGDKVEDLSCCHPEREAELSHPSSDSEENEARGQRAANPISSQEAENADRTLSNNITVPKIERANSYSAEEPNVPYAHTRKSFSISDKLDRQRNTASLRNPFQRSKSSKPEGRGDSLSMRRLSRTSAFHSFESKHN

IC50 | Compound
< 1000 nM | Cc1oc2ccc(OCc3cnccc3Cl)cc2c1C(=O)NC1CCNCC1(F)F (centres unmarked) [compound 068, 5-((4-chloropyridin-3-yl)methoxy)-N-(3,3-difluoropiperidin-4-yl)-2-methylbenzofuran-3-carboxamide]
< 1000 nM | Cc1oc2ccc(OCc3ccc4nccn4c3)cc2c1C(=O)NC1CCNCC1(F)F (centres unmarked) [compound 070, N-(3,3-difluoropiperidin-4-yl)-5-(imidazo[1,2-a]pyridin-6-ylmethoxy)-2-methylbenzofuran-3-carboxamide]
< 1000 nM | Cc1oc2ccc(OCc3cccc(N(C)C)n3)cc2c1C(=O)NC1CCNCC1(F)F (centres unmarked) [compound 071, N-(3,3-difluoropiperidin-4-yl)-5-((6-(dimethylamino)pyridin-2-yl)methoxy)-2-methylbenzofuran-3-carboxamide]
< 1000 nM | Cc1oc2ccc(OCc3cccnc3C(F)(F)F)cc2c1C(=O)NC1(CO)CCOCC1 [compound 072, N-(4-(hydroxymethyl)tetrahydro-2H-pyran-4-yl)-2-methyl-5-((2-(trifluoromethyl)pyridin-3-yl) -methoxy)benzofuran-3-carboxamide]
> 20000 nM | Cc1oc2ccc(OCc3cncc(C(F)(F)F)c3)cc2c1C(=O)NC1CCNCC1(F)F (centres unmarked) [compound 075, N-(3,3-difluoropiperidin-4-yl)-2-methyl-5-((5-(trifluoromethyl)pyridin-3-yl)methoxy)benzofuran-3-carboxamide]
> 20000 nM | Cc1oc2ccc(OCc3cncc(C(F)(F)F)c3)cc2c1C(=O)N[C@H]1CCN(C(=O)OC(C)(C)C)C1 [compound 077, tert-butyl (S)-3-(2-methyl-5-((5-(trifluoromethyl)pyridin-3-yl)methoxy)benzofuran-3-carboxamido)pyrrolidine-1-carboxylate]
< 1000 nM | Cc1ncsc1COc1ccc2oc(C)c(C(=O)NC(C)(C)CO)c2c1 [compound 104, N-(1-hydroxy-2-methylpropan-2-yl)-2-methyl-5-((4-methylthiazol-5-yl)methoxy)benzofuran-3-carboxamide]
< 1000 nM | Cc1ncsc1COc1ccc2oc(C)c(C(=O)NC3(CO)CCC3)c2c1 [compound 107, N-(1-(hydroxymethyl)cyclobutyl)-2-methyl-5-((4-methylthiazol-5-yl)methoxy)benzofuran-3-carboxamide]
< 1000 nM | Cc1ncsc1COc1ccc2oc(C)c(C(=O)NC3(CN(C)C)CCC3)c2c1 [compound 108, N-(1-((dimethylamino)methyl)cyclobutyl)-2-methyl-5-((4-methylthiazol-5-yl)methoxy)benzofuran-3-carboxamide]
< 1000 nM | Cc1oc2ccc(OCc3cccnc3C(F)(F)F)cc2c1C(=O)NC(C)(C)CO [compound 109, N-(1-hydroxy-2-methylpropan-2-yl)-2-methyl-5-((2-(trifluoromethyl)pyridin-3-yl)methoxy)benzofuran-3-carboxamide]
< 1000 nM | Cc1ncsc1COc1ccc2oc(C)c(C(=O)NC3(CCO)CCC3)c2c1 [compound 114, N-(1-(2-hydroxyethyl)cyclobutyl)-2-methyl-5-((4-methylthiazol-5-yl)methoxy)benzofuran-3-carboxamide]
< 1000 nM | Cc1oc2ccc(OCc3cccnc3C(F)(F)F)cc2c1C(=O)NC1(CO)CCC1 [compound 117, N-(1-(hydroxymethyl)cyclobutyl)-2-methyl-5-((2-(trifluoromethyl)pyridin-3-yl)methoxy)benzofuran-3-carboxamide]
< 1000 nM | Cc1ncsc1COc1ccc2oc(C)c(C(=O)NC3(C(N)=O)COC3)c2c1 [compound 119, N-(3-carbamoyloxetan-3-yl)-2-methyl-5-((4-methylthiazol-5-yl)methoxy)benzofuran-3-carboxamide]
< 1000 nM | Cc1oc2ccc(OCc3cccnc3C(F)(F)F)cc2c1C(=O)NC1(CCO)CCC1 [compound 127, N-(1-(2-hydroxyethyl)cyclobutyl)-2-methyl-5-((2-(trifluoromethyl)pyridin-3-yl)methoxy)benzo-furan-3-carboxamide]
< 1000 nM | Cc1ncsc1COc1ccc2oc(C)c(C(=O)NC3(CCO)COC3)c2c1 [compound 128, N-(3-(2-hydroxyethyl)oxetan-3-yl)-2-methyl-5-((4-methylthiazol-5-yl)methoxy)benzofuran-3-carboxamide]
< 1000 nM | Cc1oc2ccc(OCc3cccnc3C(F)(F)F)cc2c1C(=O)NC1(CCO)COC1 [compound 129, N-(3-(2-hydroxyethyl)oxetan-3-yl)-2-methyl-5-((2-(trifluoromethyl)pyridin-3-yl)methoxy) -benzofuran-3-carboxamide]
< 1000 nM | Cc1oc2ccc(OCc3cccnc3C(F)(F)F)cc2c1C(=O)NC1(CN)CCC1 [compound 136, N-(1-(aminomethyl)cyclobutyl)-2-methyl-5-((2-(trifluoromethyl)pyridin-3-yl)methoxy)benzofuran-3-carboxamide]
< 1000 nM | Cc1ncsc1COc1ccc2oc(C)c(C(=O)NC3(CO)CC3)c2c1 [compound 139, N-(1-(hydroxymethyl)cyclopropyl)-2-methyl-5-((4-methylthiazol-5-yl)methoxy)benzofuran-3-carboxamide]

IC50 | Compound
< 1000 nM | Cc1oc2ccc(OCc3cccnc3C(F)(F)F)cc2c1C(=O)NC1(CN(C)C)CCC1 [compound 140, N-(1-((dimethylamino)methyl)cyclobutyl)-2-methyl-5-((2-(trifluoromethyl)pyridin-3-yl)methoxy) -benzofuran-3-carboxamide]
< 1000 nM | Cc1ncsc1COc1ccc2oc(C)c(C(=O)NC3(CO)COC3)c2c1 [compound 142, N-(3-(hydroxymethyl)oxetan-3-yl)-2-methyl-5-((4-methylthiazol-5-yl)methoxy)benzofuran-3-carboxamide]
< 1000 nM | Cc1oc2ccc(OCc3cccnc3C(F)(F)F)cc2c1C(=O)Nc1cnn(C)c1 [compound 143, 2-methyl-N-(1-methyl-1H-pyrazol-4-yl)-5-((2-(trifluoromethyl)pyridin-3-yl)methoxy)benzofuran-3-carboxamide]
< 1000 nM | Cc1ncsc1COc1ccc2oc(C)c(C(=O)Nc3cc[nH]n3)c2c1 [compound 144, 2-methyl-5-((4-methylthiazol-5-yl)methoxy)-N-(1H-pyrazol-3-yl)benzofuran-3-carboxamide]
< 1000 nM | Cc1ncsc1COc1ccc2oc(C)c(C(=O)NC3(CNCC(F)(F)F)CCC3)c2c1 [compound 145, 2-methyl-5-((4-methylthiazol-5-yl)methoxy)-N-(1-(((2,2,2-trifluoroethyl)amino)methyl)cyclobutyl) -benzofuran-3-carboxamide]
< 1000 nM | Cc1oc2ccc(OCc3cccnc3C(F)(F)F)cc2c1C(=O)Nc1ccn(C)n1 [compound 146, 2-methyl-N-(1-methyl-1H-pyrazol-3-yl)-5-((2-(trifluoromethyl)pyridin-3-yl)methoxy)benzofuran-3-carboxamide]
< 1000 nM | Cc1ncsc1COc1ccc2oc(C)c(C(=O)Nc3cn[nH]c3)c2c1 [compound 150, 2-methyl-5-((4-methylthiazol-5-yl)methoxy)-N-(1H-pyrazol-4-yl)benzofuran-3-carboxamide]
< 1000 nM | Cc1ncsc1COc1ccc2oc(C)c(C(=O)Nc3cnn(C)c3)c2c1 [compound 152, 2-methyl-N-(1-methyl-1H-pyrazol-4-yl)-5-((4-methylthiazol-5-yl)methoxy)benzofuran-3-carboxamide]
< 1000 nM | Cc1oc2ccc(OCc3cccnc3C(F)(F)F)cc2c1C(=O)NC1(CNCC(F)(F)F)CCC1 [compound 153, 2-methyl-N-(1-(((2,2,2-trifluoroethyl)amino)methyl)cyclobutyl)-5-((2-(trifluoromethyl)pyridin-3-yl)methoxy)benzofuran-3-carboxamide]
< 1000 nM | Cc1oc2ccc(OCc3cccnc3C(F)(F)F)cc2c1C(=O)Nc1ccnn1C [compound 154, 2-methyl-N-(1-methyl-1H-pyrazol-5-yl)-5-((2-(trifluoromethyl)pyridin-3-yl)methoxy)benzofuran-3-carboxamide]
< 1000 nM | Cc1ncsc1COc1ccc2oc(C)c(C(=O)NC3CC4(COC4)C3)c2c1 [compound 156, 2-methyl-5-((4-methylthiazol-5-yl)methoxy)-N-(2-oxaspiro[3,3]heptan-6-yl)benzofuran-3-carboxamide]
< 1000 nM | Cc1oc2ccc(OCc3cccnc3C(F)(F)F)cc2c1C(=O)Nc1cn[nH]c1 [compound 158, 2-methyl-N-(1H-pyrazol-4-yl)-5-((2-(trifluoromethyl)pyridin-3-yl)methoxy)benzofuran-3-carboxamide]
< 1000 nM | Cc1ncsc1COc1ccc2oc(C)c(C(=O)Nc3ccn(C)n3)c2c1 [compound 161, 2-methyl-N-(1-methyl-1H-pyrazol-3-yl)-5-((4-methylthiazol-5-yl)methoxy)benzofuran-3-carboxamide]
< 1000 nM | Cc1ncsc1COc1ccc2oc(C)c(C(=O)NC3CCN(CC(F)(F)F)CC3)c2c1 [compound 166, 2-methyl-5-((4-methylthiazol-5-yl)methoxy)-N-(1-(2,2,2-trifluoroethyl)piperidin-4-yl)benzofuran-3-carboxamide]
< 1000 nM | Cc1oc2ccc(OCc3cccnc3C(F)(F)F)cc2c1C(=O)NC1CC2(COC2)C1 [compound 167, 2-methyl-N-(2-oxaspiro[3.3]heptan-6-yl)-5-((2-(trifluoromethyl)pyridin-3-yl)methoxy)benzofuran-3-carboxamide]
< 1000 nM | Cc1oc2ccc(OCc3cccnc3C(F)(F)F)cc2c1C(=O)NC1CCN(CC(F)(F)F)CC1 [compound 168, 2-methyl-N-(1-(2,2,2-trifluoroethyl)piperidin-4-yl)-5-((2-(trifluoromethyl)pyridin-3-yl)methoxy) -benzofuran-3-carboxamide]
< 1000 nM | Cc1oc2ccc(OCc3cccnc3C(F)(F)F)cc2c1C(=O)OCC1(N)CCOC1 (centres unmarked) [compound 170, (3-aminotetrahydrofuran-3-yl)methyl 2-methyl-5-((2-(trifluoromethyl)pyridin-3-yl)methoxy) -benzofuran-3-carboxylate]

Source: patent US12209081B2 (Katholieke Universiteit Leuven, priority 2020, dated 2025)
